Experimental data reported in patent US9018238B2, “Inhibitor of casein kinase 1δ and casein kinase 1ε” (Pharmadesign, Inc., priority 2009, dated 2015).

Experiments:
[1] = target: T1, human recombinant casein kinase 1δ (Homo sapiens, UniProt P48730); assay: Casein kinase 1δ inhibition assay (Z'-LYTE Ser/Thr 11 Peptide); assay type: biochemical; conditions: 0.3 μg/ml compound, 3.0 μg/ml enzyme, 1.0 μM peptide, 20 μM ATP; 15 min pre-reaction, 2 hours; read-out: Casein kinase 1δ inhibitory rate
T1 construct: purchased INVITROGEN PV3665
Protocol: (§1) The activity of the present compound to inhibit casein kinase 1δ and casein kinase 1ε was measured using human recombinant casein kinase 1δ (INVITROGEN; Cat No. PV3665) or casein kinase 1ε (INVITROGEN; Cat No. PV3500) as an enzyme source, and using Z′-LYTE Ser/Thr 11 Peptide (INVITROGEN; Cat No. PV3671) as a phosphorylation substrate. The compositions (final concentrations) applied during the inhibitory activity measurement assays are as follows.
Assay of Casein Kinase 1δ
3.0 μg/ml casein kinase 1δ, 0.3 μg/ml the present compound, 1.0 μM peptide, 20 μM ATP, 50 mM HEPES (pH 7.4), 10 mM MgCl2, 0.01% Brij-35, and 0.5% DMSO
(§2) The present compound had previously been reacted with the enzyme at room temperature for 15 minutes. Two hours after completion of the reaction, the remaining phosphorylation activity was measured using Z′-LYTE Kinase Assay Kit-Ser/Thr 11 Peptide (INVITROGEN; Cat No. PV3670).
(§3) The inhibitory rate of the present compound was calculated with respect to the phosphorylation activity of each of casein kinase 1δ and casein kinase 1ε in a case in which no such compounds were added. Tables 1 to 4 show the inhibitory rate (%) of each compound.

[2] = target: T2, human recombinant casein kinase 1ε (Homo sapiens, UniProt P49674); assay: Casein kinase 1ε inhibition assay (Z'-LYTE Ser/Thr 11 Peptide); assay type: biochemical; conditions: 0.3 μg/ml compound, 0.5 μg/ml enzyme, 1.0 μM peptide, 20 μM ATP; 15 min pre-reaction, 2 hours; read-out: Casein kinase 1ε inhibitory rate
T2 construct: purchased INVITROGEN PV3500
Protocol: as §1, with “follows. […]” for “follows.”
as §2, §3

[3] = system: N2A cells (N2A-APP695 cells); conditions: N2A-APP695 cells excessively expressing constitutively active casein kinase 1ε; cited from earlier work
[4] = system: human pancreatic cancer cell line; conditions: human pancreatic cancer cell line in vitro; cited from earlier work
[5] = system: human pancreatic cancer cell line transplanted into the subcutis of a mouse; conditions: cited from earlier work
[6] = system: rats; conditions: subcutaneous administration; cited from earlier work

T2 sequence (P49674 whole entry): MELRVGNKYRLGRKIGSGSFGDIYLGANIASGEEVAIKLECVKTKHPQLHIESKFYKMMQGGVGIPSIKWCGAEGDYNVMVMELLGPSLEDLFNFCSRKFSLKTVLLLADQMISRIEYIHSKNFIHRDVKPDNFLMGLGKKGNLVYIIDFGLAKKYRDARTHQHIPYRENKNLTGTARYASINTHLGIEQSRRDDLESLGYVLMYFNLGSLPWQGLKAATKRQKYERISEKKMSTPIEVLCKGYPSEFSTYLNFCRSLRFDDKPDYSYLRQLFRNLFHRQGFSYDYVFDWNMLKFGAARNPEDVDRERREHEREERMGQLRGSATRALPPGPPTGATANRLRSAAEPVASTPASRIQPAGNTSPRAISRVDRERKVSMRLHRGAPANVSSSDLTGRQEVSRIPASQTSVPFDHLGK
T1 sequence (P48730 whole entry): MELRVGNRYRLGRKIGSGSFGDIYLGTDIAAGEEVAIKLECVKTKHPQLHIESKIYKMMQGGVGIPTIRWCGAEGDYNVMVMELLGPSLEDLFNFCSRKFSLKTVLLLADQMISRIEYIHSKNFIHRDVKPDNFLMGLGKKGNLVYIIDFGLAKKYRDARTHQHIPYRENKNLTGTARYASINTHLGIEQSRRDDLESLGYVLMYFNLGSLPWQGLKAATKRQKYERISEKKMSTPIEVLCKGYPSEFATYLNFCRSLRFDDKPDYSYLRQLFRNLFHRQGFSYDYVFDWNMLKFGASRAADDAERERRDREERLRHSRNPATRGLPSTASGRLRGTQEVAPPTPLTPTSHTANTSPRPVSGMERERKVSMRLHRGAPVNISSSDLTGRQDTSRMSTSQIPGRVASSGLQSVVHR

| SMILES | inhibition at 0.3 µg/mL [1] [%] | inhibition at 0.3 µg/mL [2] [%] | also measured |
| --- | --- | --- | --- |
| O=C1OC(/C=C/c2ccccc2)=NC/1=C\c1cccnc1 [2-(2-phenylethenyl)-4-(3-pyridinylmethylene)-5(4H)-oxazolone] | 85 | 83.4 | – |
| Cn1cc(/C=C2\N=C(c3cccs3)OC2=O)cn1 [4-((1-Methyl-1H-pyrazol-4-yl)methylene)-2-(2-thienyl)-5(4H)-oxazolone] | 73.6 | 48.8 | – |
| O=C1OC(c2cccs2)=N/C1=C\c1ccc([N+](=O)[O-])c(Br)c1 [4-((3-Bromo-4-nitrophenyl)methylene)-2-(2-thienyl)-5(4H)-oxazolone] | 85.9 | 94.4 | – |
| COc1ccc(/C=C2\N=C(c3cccs3)OC2=O)cc1[N+](=O)[O-] [4-((4-Methoxy-3-nitrophenyl)methylene)-2-(2-thienyl)-5(4H)-oxazolone] | 91 | 94.8 | – |
| O=C1OC(c2cccs2)=N/C1=C\c1cc2c(cc1Cl)OCO2 [4-((6-Chloro-1,3-benzodioxol-5-yl)methylene)-2-(2-thienyl)-5(4R)-oxazolone] | 74.3 | 97 | – |
| O=C1OC(c2cccs2)=N/C1=C\c1cc(Cl)c2c(c1)OCCO2 [4-((8-Chloro-2,3-dihydro-1,4-benzodioxin-6-yl)methylene)-2-(2-thienyl)-5(4H)-oxazolone] | 76.7 | 85.8 | – |
| COc1cncc(/C=C2\N=C(c3ccc(C)s3)OC2=O)c1 [Example 1, 4-((5-Methoxy-3-pyridinyl)methylene)-2-(5-methyl-2-thienyl)-5(4H)-oxazolone] | 82 | 97.1 | – |
| COc1cncc(/C=C2\N=C(c3cccs3)OC2=O)c1 [Example 2, 4-((5-Methoxy-3-pyridinyl)methylene)-2-(2-thienyl)-5(4H)-oxazolone] | 91.1 | 96.6 | – |
| O=C1OC(c2cccs2)=N/C1=C\c1cncc(F)c1 [Example 3, 4-((5-Fluoro-3-pyridinyl)methylene)-2-(2-thienyl)-5(4H)-oxazolone] | 87.4 | 92.1 | – |
| O=C1OC(c2cccs2)=N/C1=C\c1cccnc1F [Example 4, 4-((2-Fluoro-3-pyridinyl)methylene)-2-(2-thienyl)-5(4H)-oxazolone] | 65.6 | 39.2 | – |
| COc1cc(/C=C2\N=C(c3cccs3)OC2=O)ccn1 [Example 9, 4-((2-Methoxy-4-pyridinyl)methylene)-2-(2-thienyl)-5(4H)-oxazolone] | 60.5 | 93.8 | – |
| Cn1cnc(/C=C2\N=C(c3cccs3)OC2=O)c1 [Example 10, 4-((1-Methyl-1H-imidazol-yl)methylene)-2-(2-thienyl)-5(4H)-oxazolone] | 37 | 18.1 | – |
| COCc1ccc(/C=C2\N=C(c3cccs3)OC2=O)o1 [Example 12, 4-((5-Methoxymethyl-2-furanyl)methylene)-2-(2-thienyl)-5(4H)-oxazolone] | 29 | 9 | – |
| COc1ccc(/C=C2\N=C(c3cccs3)OC2=O)c(C)n1 [Example 18, 4-((6-Methoxy-2-methyl-3-pyridinyl)methylene)-2-(2-thienyl)-5(4H)-oxazolone] | 55.3 | 32.8 | – |
| COc1ccc(/C=C2\N=C(c3cccs3)OC2=O)c(Cl)n1 [Example 19, 4-((2-Chloro-6-methoxy-3-pyridinyl)methylene)-2-(2-thienyl)-5(4H)-oxazolone] | 76.1 | 52.5 | – |
| COc1cc(OC)c(C=C2C(O)=Nc3ccccc32)c(OC)c1 [IC261] | – | – | amount of Aβ40 [3]: decreased; amount of Aβ42 [3]: decreased; cell growth [4]: suppression of the cell growth was observed; growth of tumor cells [5]: significant effect of suppressing the growth of tumor cells |
| Nc1nccc(-c2c(-c3ccc(F)cc3)ncn2C2CCCCC2)n1 [PF-670462, 4-[3-cyclohexyl-5-(4-fluoro-phenyl)-3H-imidazol-4-yl]-pyrimidin-2-ylamine] | – | – | phase of circadian rhythm [6]: significantly delayed |
| Nc1ccn([C@@H]2O[C@H](CO)[C@@H](O)C2(F)F)c(=O)n1 [gemcitabine] | – | – | growth of tumor cells [5]: significant effect of suppressing the growth of tumor cells |

Second part, led by results:

| inhibition at 0.3 µg/mL [1] [%] | inhibition at 0.3 µg/mL [2] [%] | SMILES | also measured |
| --- | --- | --- | --- |
| 94.2 | 99.4 | COc1ccc(C2=N/C(=C\c3cccnc3)C(=O)O2)cc1Br [2-(3-Bromo-4-methoxyphenyl)-4-(3-pyridinylmethylene)-5-(4H)-oxazolone] | – |
| 83.2 | 97.8 | Cc1cc(C2=N/C(=C\c3cccnc3)C(=O)O2)ccc1Br [2-(4-Bromo-3-methylphenyl)-4-(3-pyridinylmethylene)-5(4H)-oxazolone] | – |
| 87.6 | 97.6 | O=C1OC(c2cccs2)=N/C1=C\c1ccc([N+](=O)[O-])c(Cl)c1 [4-((3-Chloro-4-nitrophenyl)methylene)-2-(2-thienyl)-5(4H)-oxazolone] | – |
| 96.1 | 98.6 | COc1ccc(/C=C2\N=C(c3cccs3)OC2=O)cc1 [4-((4-methoxyphenyl)methylene)-2-(2-thienyl)-5(4H)-oxazolone] | – |
| 86.3 | 95.6 | COc1ccc(/C=C2\N=C(c3cccs3)OC2=O)cn1 [Example 5, 4-((6-Methoxy-3-pyridinyl)methylene)-2-(2-thienyl)-5(4H)-oxazolone] | – |
| 67.9 | 32 | O=C1OC(c2cccs2)=N/C1=C\c1cocn1 [Example 13, 4-((4-Oxazoyl)methylene)-2-(2-thienyl)-5(4H)-oxazolone] | – |
| 32.2 | 19.2 | O=C1OC(c2cccs2)=N/C1=C\c1csnn1 [Example 14, 4-((1,2,3-Thiadiazol-4-yl)methylene)-2-(2-thienyl)-5(4H)-oxazolone] | – |
| 86.8 | 95.1 | COC(=O)c1ccc(/C=C2\N=C(c3cccs3)OC2=O)cc1 [Methyl 4-((5-oxo-2-(2-thienyl)oxazol-4(5H)-ylidene)methyl) benzoate] | – |
